The results in this text go back to ChEMBL document CHEMBL5244269, “Improving metabolic stability and removing aldehyde oxidase liability in a 5-azaquinazoline series of IRAK4 inhibitors” (Bioorg Med Chem, 2020).

Molecules are shown by their SMILES. Values after ≈ are worked out from the molar mass of the structure shown.

Series [1] deals with SUD4. Briefly: Growth inhibition of human SU-DHL-4 cells at 1.7 uM incubated for 3 days in presence of 0.017 uM acalabrutinib relative to control. Type of series: functional. The settings on record: SU-DHL-4, 72 h, time 3 day, read-out: GI.
Series [2] concerns SUD4. Kind of series: Growth inhibition of human SU-DHL-4 cells at 0.33 uM incubated for 3 days in presence of 0.017 uM acalabrutinib relative to control. It counts as functional. The settings on record: SU-DHL-4, 72 h, time 3 day, read-out: GI.
Series [3] relates to SUD4. Kind of series: Growth inhibition of human SU-DHL-4 cells at 0.33 uM incubated for 3 days in presence of 0.003 uM acalabrutinib relative to control. Type of series: functional. The settings on record: SU-DHL-4, 72 h, time 3 day, read-out: GI.
Series [4] has as its system SUD4. Briefly: Growth inhibition of human SU-DHL-4 cells at 10 uM incubated for 3 days (reference value: -1%). Type of series: functional. The settings on record: SU-DHL-4, 72 h, time 3 day, read-out: GI.
Series [5] deals with SUD4. Briefly: Growth inhibition of human SU-DHL-4 cells at 3.3 uM incubated for 3 days (reference value: -1%). It counts as functional. The settings on record: SU-DHL-4, 72 h, time 3 day, read-out: GI.
In series [6] the test system is SUD4. Briefly: Growth inhibition of human SU-DHL-4 cells at 0.33 uM incubated for 3 days (reference value: -1%). It counts as functional. The settings on record: SU-DHL-4, 72 h, time 3 day, read-out: GI.
The subject of series [7] is SUD4. Kind of series: Growth inhibition of human SU-DHL-4 cells at 1.7 uM incubated for 3 days (reference value: -1%). It counts as functional. The settings on record: SU-DHL-4, 72 h, time 3 day, read-out: GI.
For series [8], the system named is SUD4. Kind of series: Growth inhibition of human SU-DHL-4 cells at 0.17 uM incubated for 3 days (reference value: -1%). It counts as functional. The settings on record: SU-DHL-4, 72 h, time 3 day, read-out: GI.
Series [9] relates to OCI-Ly10. Briefly: Growth inhibition of human OCILY10 cells at 0.17 uM incubated for 3 days in presence of 0.003 uM acalabrutinib relative to control. Type of series: functional. The settings on record: OCI-Ly10, 72 h, time 3 day, read-out: GI.
For series [10], the system named is OCI-Ly10. Kind of series: Growth inhibition of human OCILY10 cells at 0.17 uM incubated for 3 days in presence of 0.017 uM acalabrutinib relative to control. Type of series: functional. The settings on record: OCI-Ly10, 72 h, time 3 day, read-out: GI.
Series [11] has as its system OCI-Ly10. Briefly: Growth inhibition of human OCILY10 cells at 0.33 uM incubated for 3 days in presence of 0.003 uM acalabrutinib relative to control. The settings on record: OCI-Ly10, 72 h, time 3 day, read-out: GI. Type of series: functional.
The test system of series [12] is OCI-Ly10. Briefly: Growth inhibition of human OCILY10 cells at 0.33 uM incubated for 3 days in presence of 0.017 uM acalabrutinib relative to control. It counts as functional. The settings on record: OCI-Ly10, 72 h, time 3 day, read-out: GI.
For series [13], the system named is OCI-Ly10. Kind of series: Growth inhibition of human OCILY10 cells at 3.3 uM incubated for 3 days in presence of 0.033 uM acalabrutinib relative to control. It counts as functional. The settings on record: OCI-Ly10, 72 h, time 3 day, read-out: GI.
In series [14] the test system is OCI-Ly10. Kind of series: Growth inhibition of human OCILY10 cells at 10 uM incubated for 3 days in presence of 0.033 uM acalabrutinib relative to control. Type of series: functional. The settings on record: OCI-Ly10, 72 h, time 3 day, read-out: GI.
Series [15] deals with T1, Interleukin-1 receptor-associated kinase 4 (Homo sapiens, UniProt Q9NWZ3).
T1 sequence (Q9NWZ3 whole entry): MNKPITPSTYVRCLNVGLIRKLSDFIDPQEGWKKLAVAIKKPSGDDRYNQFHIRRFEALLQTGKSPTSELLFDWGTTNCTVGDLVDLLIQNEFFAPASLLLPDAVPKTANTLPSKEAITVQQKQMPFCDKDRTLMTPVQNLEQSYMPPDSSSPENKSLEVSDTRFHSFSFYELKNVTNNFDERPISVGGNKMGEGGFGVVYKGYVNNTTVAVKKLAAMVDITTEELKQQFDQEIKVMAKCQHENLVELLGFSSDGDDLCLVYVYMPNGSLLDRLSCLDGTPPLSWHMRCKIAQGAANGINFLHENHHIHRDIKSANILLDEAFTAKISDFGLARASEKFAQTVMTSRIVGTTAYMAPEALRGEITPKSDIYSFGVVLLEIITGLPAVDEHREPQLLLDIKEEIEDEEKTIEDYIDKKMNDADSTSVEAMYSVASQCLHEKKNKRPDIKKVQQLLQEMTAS
Briefly: Inhibition of IRAK4 (unknown origin) phosphorylation by cell based assay.

Series [16] is described as follows: Lipophilicity, LogD at pH 7.4 of the compound by shake flask method. Type of series: physicochemical. The settings on record: buffer.
The nature of series [17]: Metabolic stability in human liver microsomes assessed as intrinsic clearance. Type of series: ADME, Microsome. The settings on record: read-out: CLH.
Series [18] can be described thus: Metabolic stability in human hepatocytes assessed as intrinsic clearance measured per 10^6 cells. It counts as ADME, cell-based, Hepatocyte. The settings on record: read-out: CLH.
A short description of series [19]: Apparent permeability across apical to basolateral side in human Caco-2 cells measured for 360 mins by liquid scintillation counting based analysis. Type of series: ADME, cell-based.
Series [20] is described as follows: Efflux ratio of apparent permeability basolateral to apical side over apical to basolateral side in human Caco-2 cells measured for 360 mins by liquid scintillation counting based analysis. Type of series: ADME, cell-based.
Series [21] can be described thus: Aqueous solubility in pH 7.4 phosphate buffer. Type of series: physicochemical.
The target of series [22] is BDNF/NT-3 growth factors receptor (Homo sapiens, UniProt Q16620). Kind of series: Inhibition of TRKB (unknown origin) in presence of 25 uM ATP.
Series [23] concerns the target NT-3 growth factor receptor (Homo sapiens, UniProt Q16288). Briefly: Inhibition of TRKC (unknown origin) in presence of 50 uM ATP.
Series [24] deals with OCI-Ly10. Briefly: Growth inhibition of human OCILY10 cells at 0.17 uM incubated for 3 days (Rvb= -3%). Type of series: functional. The settings on record: OCI-Ly10, 72 h, time 3 day, read-out: GI.
Series [25] relates to OCI-Ly10. Briefly: Growth inhibition of human OCILY10 cells at 0.33 uM incubated for 3 days (Rvb= -3%). It counts as functional. The settings on record: OCI-Ly10, 72 h, time 3 day, read-out: GI.
Series [26] has as its system OCI-Ly10. Briefly: Growth inhibition of human OCILY10 cells at 3.3 uM incubated for 3 days (Rvb= -3%). Type of series: functional. The settings on record: OCI-Ly10, 72 h, time 3 day, read-out: GI.

BDNF/NT-3 growth factors receptor, sequence (Q16620 whole entry): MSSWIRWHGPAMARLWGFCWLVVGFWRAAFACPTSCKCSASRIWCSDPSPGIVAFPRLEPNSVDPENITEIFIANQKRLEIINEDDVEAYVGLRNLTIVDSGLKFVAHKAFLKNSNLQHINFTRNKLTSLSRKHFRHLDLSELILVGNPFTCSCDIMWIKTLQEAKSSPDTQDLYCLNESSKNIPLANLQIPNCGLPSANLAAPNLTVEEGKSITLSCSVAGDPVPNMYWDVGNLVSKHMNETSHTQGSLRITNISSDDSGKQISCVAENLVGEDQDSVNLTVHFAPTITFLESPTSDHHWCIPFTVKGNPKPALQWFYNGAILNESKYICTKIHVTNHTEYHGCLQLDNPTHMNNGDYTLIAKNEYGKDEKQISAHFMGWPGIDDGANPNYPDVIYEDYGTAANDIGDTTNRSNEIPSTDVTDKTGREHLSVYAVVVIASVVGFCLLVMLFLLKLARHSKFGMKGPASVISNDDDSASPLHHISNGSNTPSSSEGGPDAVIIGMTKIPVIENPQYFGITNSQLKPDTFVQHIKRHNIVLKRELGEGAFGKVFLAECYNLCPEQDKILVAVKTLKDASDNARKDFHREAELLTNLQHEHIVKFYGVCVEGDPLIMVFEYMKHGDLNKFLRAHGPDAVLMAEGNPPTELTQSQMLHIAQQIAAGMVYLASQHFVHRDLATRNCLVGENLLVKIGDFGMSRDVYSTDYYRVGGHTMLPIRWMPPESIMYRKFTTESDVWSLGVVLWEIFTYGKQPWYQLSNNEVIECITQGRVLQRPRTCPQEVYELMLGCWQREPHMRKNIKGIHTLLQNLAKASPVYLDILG
NT-3 growth factor receptor, sequence (Q16288 whole entry): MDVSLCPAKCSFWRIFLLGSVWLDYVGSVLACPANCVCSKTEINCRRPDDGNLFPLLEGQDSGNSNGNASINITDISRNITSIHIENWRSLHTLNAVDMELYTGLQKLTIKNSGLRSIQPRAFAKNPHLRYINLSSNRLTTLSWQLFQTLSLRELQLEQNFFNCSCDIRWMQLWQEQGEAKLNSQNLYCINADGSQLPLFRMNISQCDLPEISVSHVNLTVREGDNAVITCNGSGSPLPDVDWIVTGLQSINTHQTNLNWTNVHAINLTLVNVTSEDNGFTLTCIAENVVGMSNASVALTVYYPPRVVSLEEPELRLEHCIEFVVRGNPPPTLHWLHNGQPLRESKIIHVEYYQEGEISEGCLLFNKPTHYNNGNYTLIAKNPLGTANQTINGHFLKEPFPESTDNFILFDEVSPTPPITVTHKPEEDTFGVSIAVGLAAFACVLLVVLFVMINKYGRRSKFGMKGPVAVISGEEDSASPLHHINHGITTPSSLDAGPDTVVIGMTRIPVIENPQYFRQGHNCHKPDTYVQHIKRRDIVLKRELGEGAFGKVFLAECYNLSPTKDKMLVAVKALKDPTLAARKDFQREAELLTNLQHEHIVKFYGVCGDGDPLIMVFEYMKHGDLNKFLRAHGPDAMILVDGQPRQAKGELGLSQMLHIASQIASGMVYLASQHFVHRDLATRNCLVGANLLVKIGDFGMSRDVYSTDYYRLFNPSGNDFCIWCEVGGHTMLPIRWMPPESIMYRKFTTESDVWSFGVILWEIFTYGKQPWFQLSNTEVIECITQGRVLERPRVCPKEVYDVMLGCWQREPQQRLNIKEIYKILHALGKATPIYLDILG

On to `CC[C@@H]1[C@H](F)C(=O)N[C@@H]1COc1nccc2cc(C(N)=O)c(OC)cc12` [ZIMLOVISERTIB], for which the inhibition of growth at 1.7 µM in the series on SUD4 [1] was 2%; in the series with SUD4 [7] it was 1%. In addition, the inhibition of growth at 0.33 µM came to 1% in the series on SUD4 [2]; 1% in the series on SUD4 [3]; 1% in the series on SUD4 [6]; 21% with OCI-Ly10 [11]; 92% with OCI-Ly10 [12]. Also, the inhibition of growth at 10 µM with SUD4 [4] came out at 2%; with OCI-Ly10 [14] it was 155%. Also, the figures for the inhibition of growth at 3.3 µM in the series on SUD4 [5] and in the series on OCI-Ly10 [13] were 1% and 139%, respectively. Further, the inhibition of growth at 0.17 µM in the series on SUD4 [8] worked out at 1%; in the series on OCI-Ly10 [9] it was 22%; in the series with OCI-Ly10 [10], 93%.
For `Cc1ncc(-c2nc3c(OC4(C)CC4)nc(Nc4cnn(C5CCN(C)CC5)c4)nc3cc2F)cn1`, the values for the inhibition of growth at 1.7 µM with SUD4 [1] and in the series on SUD4 [7] were 0% and -2%, respectively. Also, the inhibition of growth at 0.33 µM in the series with SUD4 [2] was 1%; with SUD4 [3], 0%; with SUD4 [6] it was -1%; with OCI-Ly10 [25], 8%; with OCI-Ly10 [11], 33%; in the series with OCI-Ly10 [12], 122%. For the same compound, the inhibition of growth at 10 µM in the series with SUD4 [4] was 0%; in the series on OCI-Ly10 [14], 197%. Moreover, the inhibition of growth at 3.3 µM in the series with SUD4 [5] was -2%; in the series with OCI-Ly10 [26], 76%; with OCI-Ly10 [13], 194%. The inhibition of growth at 0.17 µM was -2% in the series on SUD4 [8], 1% with OCI-Ly10 [24], 24% in the series with OCI-Ly10 [9] and 92% in the series with OCI-Ly10 [10]. Also, the IC50 in [15] turned out to be 110 nM; in series [22], 760 nM; in series [23], 270 nM. In series [16], this compound displayed a logD of 2.6. For the same compound, the microsomal CLint in [17] was 58 µL/min/mg. For the same compound, in series [18], the hepatocyte CLint was less than 1 µL/min/1e6 cells. Also, the Papp A→B at 6 h in [19] turned out to be 31 ×10⁻⁶ cm/s. Moreover, in [20], the efflux ratio at 6 h is 1.4. This compound came in with a solubility in series [21] of 800 µM (≈ 392 µg/mL).
In the case of `Cc1ncc(-c2nc3c(NC(C)C)nc(Nc4cnn(C5CC6(C5)CN(C)C6)c4)nc3cc2F)cn1`, the inhibition of growth at 1.7 µM in the series with SUD4 [1] worked out at 3%. Besides, the inhibition of growth at 0.33 µM in the series with SUD4 [2] is 3%; with SUD4 [3] it was 3%; with OCI-Ly10 [25], 35%; in the series with OCI-Ly10 [11], 51%; in the series with OCI-Ly10 [12] it was 158%. Besides, the IC50 in [15] is 210 nM; in [22], 930 nM; in series [23] it was 570 nM. Further, the logD in series [16] amounted to 1.9. Besides, the microsomal CLint in series [17] was less than 3 µL/min/mg. The hepatocyte CLint in series [18] was less than 1 µL/min/1e6 cells. The Papp A→B at 6 h in series [19] was 7.7 ×10⁻⁶ cm/s. Moreover, the efflux ratio at 6 h in series [20] was determined as 4.2. In series [21], this compound registered a solubility greater than 1000 µM. Moreover, the results for the inhibition of growth at 0.17 µM with OCI-Ly10 [24], with OCI-Ly10 [9] and with OCI-Ly10 [10] were 5%, 29% and 97%, respectively. The inhibition of growth at 3.3 µM in the series with OCI-Ly10 [26] was determined as 105%; with OCI-Ly10 [13], 196%. The inhibition of growth at 10 µM in the series with OCI-Ly10 [14] turned out to be 198%.
